According to patent publication US9908895B2, “Tricyclic fused thiophene derivatives as JAK inhibitors” (Incyte Corporation, priority 2012, dated 2018):

These compounds were tested on human JAK1 (assay: In vitro JAK kinase assay (HTRF), JAK1). Settings: ratio of JAK2 IC50 to JAK1 IC50 at 1 mM ATP.
Assay type: biochemical
Protocol: Compounds herein were tested for inhibitory activity of JAK targets according to the following in vitro assay described in Park et al., Analytical Biochemistry 1999, 269, 94-104. The catalytic domains of human JAK1 (a.a. 837-1142), JAK2 (a.a. 828-1132) and JAK3 (a.a. 781-1124) were expressed using baculovirus in insect cells and purified. The catalytic activity of JAK1, JAK2 or JAK3 was assayed by measuring the phosphorylation of a biotinylated peptide. The phosphorylated peptide was detected by homogenous time resolved fluorescence (HTRF). IC50s of compounds were measured for each kinase in the 40 μL reactions that contain the enzyme, ATP and 500 nM peptide in 50 mM Tris (pH 7.8) buffer with 100 mM NaCl, 5 mM DTT, and 0.1 mg/mL (0.01%) BSA. For the 1 mM IC50 measurements, ATP concentration in the reactions was 1 mM. Reactions were carried out at room temperature for 1 hour and then stopped with 20 μL 45 mM EDTA, 300 nM SA-APC, 6 nM Eu-Py20 in assay buffer (Perkin Elmer, Boston, Mass.). Binding to the Europium labeled antibody took place for 40 minutes and HTRF signal was measured on a PHERA star plate reader (BMG, Cary, N.C.). The Example compounds were each tested in the Example A assay (see Table 1 for data for the compounds of the examples as tested by the assay of Example A at 1 mM ATP).
In the case of CCc1nc2cnc3ccsc3c2n1[C@@H]1CC[C@@H](CC#N)[C@@H](O)C1 (mixture of isomers) [Example 35], the JAK2/JAK1 was over 10.
Compound C[C@@H](O)c1nc2cnc3ccsc3c2n1C1CCC(O)(CC#N)CC1 (single isomer, unassigned) [24 (first peak)] has a JAK2/JAK1 of over 10.
Compound C[C@@H](O)c1nc2cnc3ccsc3c2n1C1CCC(NCCC#N)CC1 (single isomer, unassigned) [30 (first peak)] has a JAK2/JAK1 of over 2.
For C[C@@H](O)c1nc2cnc3ccsc3c2n1C1CCC(NCCC#N)CC1 (single isomer, unassigned) [30 (second peak)], the JAK2/JAK1 was over 10.
N#CCC1CCC(CO)(n2cnc3cnc4ccsc4c32)CC1 (single isomer, unassigned) [72 (second peak), [4-(Hydroxymethyl)-4-(1H-imidazo[4,5-d]thieno[3,2-b]pyridin-1-yl)cyclohexyl]acetonitrile] gave a JAK2/JAK1 of over 5.
C[C@@H](O)c1nc2cnc3ccsc3c2n1[C@H]1CCCOC1 [Example 1, (1R)-1-{1-[(3S)-Tetrahydro-2H-pyran-3-yl]-1H-imidazo[4,5-d]thieno[3,2-b]pyridin-2-yl}ethanol] gave a JAK2/JAK1 of over 3.
For C[C@@H](O)c1nc2cnc3ccsc3c2n1[C@H]1CC[C@H](CC#N)CC1 [Example 2, (trans-4-{2-[(1R)-1-Hydroxyethyl]-1H-imidazo[4,5-d]thieno[3,2-b]pyridin-1-yl}cyclohexyl)acetonitrile], the JAK2/JAK1 was over 10.
C[C@@H](O)c1nc2cnc3ccsc3c2n1[C@H]1CC[C@H](O)CC1 [Example 3, trans-4-{2-[(1R)-1-Hydroxyethyl]-1H-imidazo[4,5-d]thieno[3,2-b]pyridin-1-yl}cyclohexanol] showed a JAK2/JAK1 of over 10.
For C[C@@H](O)c1nc2cnc3ccsc3c2n1[C@H]1CC[C@H](NCC(F)(F)F)CC1 [Example 4, (1R)-1-(1-{trans-4-[(2,2,2-Trifluoroethyl)amino]cyclohexyl}-1H-imidazo[4,5-d]thieno[3,2-b]pyridin-2-yl)ethanol], the JAK2/JAK1 was over 10.
Compound C[C@@H](O)c1nc2cnc3ccsc3c2n1[C@H]1CC[C@H](CCS(C)(=O)=O)CC1 [Example 5, (1R)-1-(1-{trans-4-[2-(Methylsulfonyl)ethyl]cyclohexyl}-1H-imidazo[4,5-d]thieno[3,2-b]pyridin-2-yl)ethanol] has a JAK2/JAK1 of over 10.
C[C@@H](O)c1nc2cnc3ccsc3c2n1[C@H]1CC[C@@H](n2cncn2)CC1 [Example 6, (1R)-1-{1-[cis-4-(1H-1,2,4-Triazol-1-yl)cyclohexyl]-1H-imidazo[4,5-d]thieno[3,2-b]pyridin-2-yl}ethanol] showed a JAK2/JAK1 of over 6.
Compound C[C@@H](O)c1nc2cnc3ccsc3c2n1[C@H]1CC[C@@H](C#N)CC1 [Example 7, cis-4-{2-[(1R)-1-Hydroxyethyl]-1H-imidazo[4,5-d]thieno[3,2-b]pyridin-1-yl}cyclohexanecarbonitrile] has a JAK2/JAK1 of over 10.
Work on C[C@@H](O)c1nc2cnc3ccsc3c2n1[C@H]1CC[C@H](CCC#N)CC1 [Example 8, 3-(trans-4-{2-[(1R)-1-Hydroxyethyl]-1H-imidazo[4,5-d]thieno[3,2-b]pyridin-1-yl}cyclohexyl)propanenitrile] yielded a JAK2/JAK1 of over 10.
C[C@@H](O)c1nc2cnc3ccsc3c2n1[C@H]1CC[C@H](CC#N)CC1.Cl [Example 10, (trans-4-{2-[(1R)-1-Hydroxyethyl]-1H-imidazo[4,5-d]thieno[3,2-b]pyridin-1-yl}cyclohexyl)acetonitrile HCl salt] was tested, and the JAK2/JAK1 was over 10.
Work on C[C@@H](O)c1nc2cnc3ccsc3c2n1[C@H]1CC[C@H](CO)CC1 [Example 11, (1R)-1-{1-[trans-4-(Hydroxymethyl)cyclohexyl]-1H-imidazo[4,5-d]thieno[3,2-b]pyridin-2-yl}ethanol] yielded a JAK2/JAK1 of over 10.
Compound C[C@@H](O)c1nc2cnc3ccsc3c2n1[C@H]1CC[C@H](CF)CC1 [Example 12, (1R)-1-{1-[trans-4-(Fluoromethyl)cyclohexyl]-1H-imidazo[4,5-d]thieno[3,2-b]pyridin-2-yl}ethanol] has a JAK2/JAK1 of over 10.
Compound C[C@@H](O)c1nc2cnc3ccsc3c2n1C1CCCCC1 [Example 13, (1R)-1-(1-Cyclohexyl-1H-imidazo[4,5-d]thieno[3,2-b]pyridin-2-yl)ethanol] has a JAK2/JAK1 of over 10.
CNS(=O)(=O)C[C@H]1CC[C@H](n2c([C@@H](C)O)nc3cnc4ccsc4c32)CC1 [Example 14, 1-(trans-4-{2-[(1R)-1-hydroxyethyl]-1H-imidazo[4,5-d]thieno[3,2-b]pyridin-1-yl}cyclohexyl)-N-methylmethanesulfonamide] showed a JAK2/JAK1 of over 5.
Work on C[C@@H](O)c1nc2cnc3ccsc3c2n1C1CCN(CC(F)(F)F)CC1 [Example 15, (1R)-1-{1-[1-(2,2,2-Trifluoroethyl)piperidin-4-yl]-1H-imidazo[4,5-d]thieno[3,2-b]pyridin-2-yl}ethanol] yielded a JAK2/JAK1 of over 9.
Compound C[C@@H](O)c1nc2cnc3ccsc3c2n1C1CCN(CCC#N)CC1 [Example 16, 3-(4-{2-[(1R)-1-Hydroxyethyl]-1H-imidazo[4,5-d]thieno[3,2-b]pyridin-1-yl}piperidin-1-yl)propanenitrile] has a JAK2/JAK1 of over 10.
Work on N#CC[C@H]1CC[C@H](n2c(CO)nc3cnc4ccsc4c32)CC1 [Example 17, {trans-4-[2-(Hydroxymethyl)-1H-imidazo[4,5-d]thieno[3,2-b]pyridin-1-yl]cyclohexyl}acetonitrile] yielded a JAK2/JAK1 of over 10.
For CS(=O)(=O)NCc1nc2cnc3ccsc3c2n1[C@H]1CC[C@H](CC#N)CC1 [Example 18, N-({1-[trans-4-(Cyanomethyl)cyclohexyl]-1H-imidazo[4,5-d]thieno[3,2-b]pyridin-2-yl}methyl)methanesulfonamide], the JAK2/JAK1 was over 10.
C[C@@H](O)c1nc2cnc3ccsc3c2n1[C@H]1CCC(CO)OC1 (stereo partly drawn) [Example 19, (1R)-1-{1-[(3S)-6-(Hydroxymethyl)tetrahydro-2H-pyran-3-yl]-1H-imidazo[4,5-d]thieno[3,2-b]pyridin-2-yl}ethanol] gave a JAK2/JAK1 of over 10.
Compound C[C@@H](O)c1nc2cnc3ccsc3c2n1[C@H]1CC[C@H](CC#N)OC1 [Example 20, ((2R,5S)-5-{2-[(1R)-1-Hydroxyethyl]-1H-imidazo[4,5-d]thieno[3,2-b]pyridin-1-yl}tetrahydro-2H-pyran-2-yl)acetonitrile] has a JAK2/JAK1 of over 10.
C[C@@H](O)c1nc2cnc3ccsc3c2n1[C@H]1CC[C@@H](CC#N)OC1 [Example 21, ((2S,5S)-5-{2-[(1R)-1-Hydroxyethyl]-1H-imidazo[4,5-d]thieno[3,2-b]pyridin-1-yl}tetrahydro-2H-pyran-2-yl)acetonitrile] showed a JAK2/JAK1 of over 10.
With CS(=O)(=O)NCc1nc2cnc3ccsc3c2n1[C@H]1CC2CCC1C2 (stereo partly drawn) [Example 22, N-((1-((2S)-Bicyclo[2.2.1]heptan-2-yl)-1H-imidazo[4,5-d]thieno[3,2-b]pyridin-2-yl)methyl)methanesulfonamide] the JAK2/JAK1 was over 4.
With N#CC[C@H]1CC[C@H](n2/c(=N/C#N)[nH]c3cnc4ccsc4c32)CC1.O=C(O)C(F)(F)F [Example 25, {(2E)-1-[trans-4-(Cyanomethyl)cyclohexyl]-1,3-dihydro-2H-imidazo[4,5-d]thieno[3,2-b]pyridin-2-ylidene}cyanamide trifluoroacetate] the JAK2/JAK1 was over 6.
In the case of N#CC[C@H]1CC[C@H](n2c(C3CC3)nc3cnc4ccsc4c32)CC1 [Example 26, [trans-4-(2-Cyclopropyl-1H-imidazo[4,5-d]thieno[3,2-b]pyridin-1-yl)cyclohexyl]acetonitrile], the JAK2/JAK1 was over 10.
With CC(C)c1nc2cnc3ccsc3c2n1[C@H]1CC[C@H](CC#N)CC1 [Example 27, [trans-4-(2-Isopropyl-1H-imidazo[4,5-d]thieno[3,2-b]pyridin-1-yl)cyclohexyl]acetonitrile] the JAK2/JAK1 was over 10.
In the case of N#CC[C@H]1CC[C@H](n2c(C3CNC3)nc3cnc4ccsc4c32)CC1 [Example 28, [trans-4-(2-Azetidin-3-yl-1H-imidazo[4,5-d]thieno[3,2-b]pyridin-1-yl)cyclohexyl]acetonitrile], the JAK2/JAK1 was over 7.
Compound CN1CC(c2nc3cnc4ccsc4c3n2[C@H]2CC[C@H](CC#N)CC2)C1 [Example 29, {trans-4-[2-(1-Methylazetidin-3-yl)-1H-imidazo[4,5-d]thieno[3,2-b]pyridin-1-yl]cyclohexyl}acetonitrile] has a JAK2/JAK1 of over 9.
With C[C@@H](O)c1nc2cnc3ccsc3c2n1C1CCCC(CCC#N)C1 (stereo partly drawn) [Example 32, 3-(3-{2-[(1R)-1-Hydroxyethyl]-1H-imidazo[4,5-d]thieno[3,2-b]pyridin-1-yl}cyclohexyl)propanenitrile] the JAK2/JAK1 was over 10.
With Cc1nc2cnc3ccsc3n2c1-c1ccc(CC#N)cc1 [Example 33, [4-(7-Methylimidazo[1,2-a]thieno[3,2-e]pyrazin-8-yl)phenyl]acetonitrile] the JAK2/JAK1 was over 7.
Cc1nc2cnc3ccsc3c2n1[C@H]1CC[C@H](CC#N)OC1 [Example 38, [(2R,5S)-5-(2-Methyl-1H-imidazo[4,5-d]thieno[3,2-b]pyridin-1-yl)tetrahydro-2H-pyran-2-yl]acetonitrile] gave a JAK2/JAK1 of over 10.
CCc1nc2cnc3ccsc3c2n1[C@H]1CC[C@H](CC#N)OC1 [Example 39, [(2R,5S)-5-(2-Ethyl-1H-imidazo[4,5-d]thieno[3,2-b]pyridin-1-yl)tetrahydro-2H-pyran-2-yl]acetonitrile] gave a JAK2/JAK1 of over 10.
